Where a name gives a salt, the structure may show the parent alone.
Legend:
[1] = system: isolated perfused rat pancreas (insulin secretion); experiment: Insulin-secretory activity in the isolated perfused rat pancreas; set-up: species or system rat (female Charles River); settings: 16.7 mM glucose, index > 1 indicates suppression of insulin secretion
Description: DETERMINATION OF INSULIN-SECRETORY ACTIVITY IN THE ISOLATED PERFUSED RAT PANCREAS
Pancreases were obtained from young adult female Charles River rats weighing from 200-300 g. The animals were anesthesized with sodium pentobarbitol (45 mg/kg), injected intraperitoneally, and the pancreas with its intact vasculature was removed and connected to an extracorporeal perfusion apparatus.
The basic perfusion solution contained: 133 mM NaCl, 4.4 mM KCl, 2.5 mM MgSO4, 2.4 mM Ca gluconate, 1.5 mM KH2 PO4, 29.4 mM HaHCO3, 4% dextran and 0.2% bovine serum albumin and glucose as discussed below. The perfusion flow rate was kept constant at 4 ml/min. After a 15-20 minute equilibration period, the experimental protocol was begun. The pancreatic effluent was collected in either one or four-minute fractions.
The perfusion was run in the following sequence for each test compounds:
30 min 16.7 mM glucose--internal control
30 min 16.7 mM glucose and test compound
10 min 16.7 mM glucose--to check pancreas viability
The perfusion for the nontreated pancreas preparation was run as above, except that the test compound was omitted and replaced with perfusion solution.
Test compounds were dissolved in 90% ethanol or dimethylsulfoxide to a concentration of 25 mM and then diluted in the perfusion buffer to the desired concentration. The perfusion effluent was collected in one or four minute fractions--the samples were checked immediately, aliquoted for submission to radioimmunoassay and stored at -20° C. until the time of assay. The radioimmunoassay of insulin was carried out by a back-titration method using a pure rat insulin standard.
To assess the inhibitory activity of the test compounds, an inhibition index was calculated. The inhibition index is derived by comparing the insulin secretion response from treated versus nontreated pancreas preparations. For each preparation, a ratio of insulin secretion was calculated from the area under the insulin secretion curve of the first pulse of 16.7 mM glucose divided by the area under the curve of the second pulse of 16.7 mM glucose containing compound.

[2] = Glucose clearance: acute in vivo model; set-up: species or system Sprague-Dawley rats; settings: Rattus norvegicus, po, 0.5 h; 100 mg/kg intragastric, 30 min before i.p. glucose 1 g/kg; circulating glucose at 30 min; >100% indicates activity
Description: GLUCOSE CLEARANCE: ACUTE IN VIVO MODEL
The rationale for this test is that compounds which suppress insulin secretion should increase circulating glucose levels above those observed in controls following the administration of a high glucose load. Sprague-Dawley rats which range in weight from 150 to 180 grams after an overnight fast of 16 or 18 hours are given the test compound (100 mg/kg body weight) by intragastric administration 30 minutes before the intraperitoneal administration of glucose (1 g/kg body weight). Circulating glucose levels are determined immediately before glucose administration and 30, 60 and 90 minutes after glucose administration. Active compounds increase circulating glucose levels compared to controls. Since glucose levels peak at 30 minutes following glucose administration, the difference in circulating glucose levels between controls and treated rats at 30 minutes is used as an index of activity. The data are expressed as percent of control.

[3] = Antiobesity effects in obese Zucker rats; format: in vivo, genetically obese male Zucker rats; settings: 58 mg/kg, 14 days
Description: ANTIOBESITY EFFECTS IN OBESE ZUCKER RATS
Genetically Obese Male Zucker rats were kept in temperature (22° C.) and light (12 hours light-dark cycle) regulated rooms. One week prior to the start of the experiment, the rats were transferred to individual wirebottomed cages and trained to eat a powdered chow diet (Ralston Purina Co., St. Louis, Mo.) ad libitum.
At the beginning of the experiment, the control group contributed to eat the chow diet and the experimental animals were given a chow diet containing drug. The amount of drug administered was calculated from the food intake per kg body weight for each experimental group. The age of the rats at the start of the drug treatment was two to three months. The period of treatment was 28 to 64 days. Food intake and body weights were recorded periodically (once each day to twice a week) throughout the duration of the study. Plasma samples for insulin and glucose determinations were taken from clipped tails. Carcass composition was determined at the end of the treatment period and, or comparative purposes, prior to the start of treatment.

Row | Structure (SMILES) | Perfused Pancreas Inhibition Index ([1]; 100 μM) | response vs control in vivo at 100 mg/kg [2] [%] | also measured
1 | O=C(CCCc1cccnc1)N1CCC(C(c2ccccc2)c2ccccc2)CC1 [Example 10, 4-diphenylmethyl-1-[1-oxo-4-(3-pyridinyl)butyl]piperidine, 0.1 molar ethylacetate solvate] | 6.0 | 105 | –
2 | O=C(CCCc1cccnc1)N1CCC(C=C(c2ccccc2)c2ccccc2)CC1 [Example 11, 4-(2,2-diphenylethenyl)-1-[1-oxo-4-(3-pyridinyl)butyl]piperidine] | – | 99 | Perfused Pancreas Inhibition Index ([1]; 50 μM): 7.6
3 | O=C(CCCc1cccnc1)N1CCC(CC(c2ccccc2)c2ccccc2)CC1 [Example 14, 4-(2,2-diphenylethyl)-1-[1-oxo-4-(3-pyridinyl)butyl]piperidine] | 14.1 | 109 | –
4 | c1ccc(C(c2ccccc2)C2CCN(CCCCc3cccnc3)CC2)cc1 [Example 16, 3-[4-[4-(Diphenylmethyl)-1-piperidinyl]butyl]pyridine (1:1)-(Z)-2-butenedioate salt] | 5.3 | 120 | –
5 | C(=C(c1ccccc1)c1ccccc1)C1CCN(CCCCc2cccnc2)CC1 [Example 17, 3-[4-[4-(2,2-Diphenylethenyl)-1-piperidinyl]butyl]pyridine] | 1.7 | 101 | –
6 | Fc1ccc(C(=CC2CCN(CCCCc3cccnc3)CC2)c2ccc(F)cc2)cc1 [Example 18, 3-[4-[4-[2,2-bis(4-fluorophenyl)ethenyl]-1-piperidinyl]butyl]pyridine (1:1)-(E)-2-butenedioate salt] | 0.6 | 113 | –
7 | C(=C(c1ccccc1)c1ccccc1)C1CCN(CCCCCc2cccnc2)CC1 [Example 19, 3-[5-[4-(2,2-Diphenylethenyl)-1-piperidinyl]pentyl]pyridine (1:1)-(E)-2-butenedioate salt] | 24.1 | 97 | –
8 | c1ccc(C(CC2CCN(CCCCc3cccnc3)CC2)c2ccccc2)cc1 [Example 20, 3-[4-[4-(2,2-Diphenylethyl)-1-piperidinyl]butyl]pyridine] | 19.1 | 106 | –
9 | Fc1ccc(C(CC2CCN(CCCCc3cccnc3)CC2)c2ccc(F)cc2)cc1 [Example 21, 3-[4-[4-[2,2-Bis(4-fluorophenyl)ethyl]-1-piperidinyl]butyl]pyridine (1:1)-(E)-2-butenedioate salt] | 16.3 | 136 | –
10 | C(=C(c1ccccc1)c1ccccc1)C1CCN(CCCc2cccnc2)CC1 [Example 22, 3-[3-[4-(2,2-Diphenylethenyl)-1-piperidinyl]propyl]pyridine (1:1)-(E)-2-butenedioate salt] | 10.1 | 101 | –
11 | C(=C(c1ccccc1)c1ccccc1)C1CCN(CCCCCCc2cccnc2)CC1 [Example 23, 3-[6-[4-(2,2-diphenylethenyl)-1-piperidinyl]hexyl]pyridine (1:1)-(E)-2-butenedioate salt] | 2.6 | 144 | –
12 | c1ccc(C(CC2CCN(CCCCCCCCc3cccnc3)CC2)c2ccccc2)cc1 [Example 27, 3-[8-[4-(2,2-Diphenylethyl)-1-piperidinyl]octyl]pyridine] | – | – | Relative Body Weight Gain Index ([3]; gain / days / dose (g/kg)): 94; Body Weight Gain (treated minus control) ([3]; marked *): -76 g; Food Intake ([3]; marked *): 70 % of control

From patent US4632925A, “N-substituted diphenylpiperidines and antiobesity use thereof” (Hoffmann-La Roche Inc., priority 1985, dated 1986)
